Results as given in US6395288B1, “Subversion of bacterial resistance by low solubility antibiotics” (Kent State University, priority 1998, dated 2002).

How the values were obtained:
[1] = Local (cellular) toxicity in vitro, fluorescein assay; details: FS-TET disks at solubility limit (TET-HCl 20 mg/mL, TET free base 1 mg/mL)
[2] = tested on: MDR isotype of S. aureus (ATCC 27659); assay: Agar diffusion zone of growth inhibition, antibiotics delivered from fibrin sealant; type: cell-based, Staphylococcus aureus; details: in vitro, 6 mm wells filled with fibrin sealant with antibiotic, 18 h at 37° C., FIG. 2
Procedure: The method used was that of Barry,Am. Journal of Clinical Pathology, 53:149 (1970), incorporated herein by reference, with modifications. Briefly, antibiotic bioactivity was assessed by agar diffusion where the agar hydrogel was seeded with bacteria prior to solidification. Several 6 mm wells were cut into the agar, the plugs were removed by aspiration and the wells were filled with the fibrin sealant hydrogel containing various concentrations of low-solubility antibiotics. Cultures were incubated for 18 h at 37° C. Zones of growth inhibition—the area about the well where diffused antibiotic prevents growth of seeded bacteria—were recorded to the nearest mm and graphed in FIG. 2. The zone of inhibition required to document bacterial susceptibility to a particular concentration of antibiotic is indicated by a black horizontal bar. […] Moreover, increasing the local concentration of low solubility antibiotics released from fibrin sealant effectively overcomes S. aureus resistance in vitro.

[3] = tested on: non-multi-drug resistant (NMDR) peritonitis; assay: Prophylactic protection against lethal NMDR peritonitis in mice; type: in vivo; details: prophylactic treatment, 500 mg/kg

## CN(C)[C@@H]1C(=O)C(C(N)=O)=C(O)[C@@]2(O)C(=O)C3=C(O)c4c(O)cccc4[C@@](C)(O)[C@H]3C[C@@H]12.Cl [TET-HCl]
[1]
  local (cellular) toxicity, fluorescein assay: acutely toxic

## [H]/N=C(/N)N[C@H]1[C@H](O)[C@@H](O)[C@H](O[C@@H]2O[C@@H](C)[C@](O)(C=O)[C@H]2O[C@@H]2O[C@@H](CO)[C@H](O)[C@@H](O)[C@@H]2NC)[C@@H](N/C(N)=N\[H])[C@@H]1O [streptomycin]
[2]
  growth inhibition (zone of growth inhibition): appeared effective in vitro

## CN(C)[C@@H]1C(O)=C(C(N)=O)C(=O)[C@@]2(O)C(O)=C3C(=O)c4c(O)cccc4[C@@](C)(O)[C@H]3C[C@@H]12 [tetracycline]
[3]
  protection against a lethal dose of NMDR peritonitis: 100%
